The results in this text go back to patent US20240000777A1, “USE OF AN ERK INHIBITOR FOR THE TREATMENT OF MYELOFIBROSIS” (Novartis AG, priority 2020, published 2024).

In assay [1] the test system is Jak2V617F Erk1-/- Erk2 fl/fl Mx-Cre mice. The assay can be described thus: Genetic deletion of ERK1/2 plus ruxolitinib in Jak2V617F MPN mouse model. In kind it is in vivo. Conditions: ruxolitinib for 2 weeks combined with ERK1/2 deletion. The text has this: Jak2V617F Mx-Cre mouse was crossed with Erk1−/− Erk2 fl/fl Mx-Cre mice to genetically delete ERK1/2 to obtain Jak2V617F Erk1−/− Erk2 fl/fl Mx-Cre offspring.

Assay [2] deals with JAK2V617F PV/MF mouse model. The assay is classed as in vivo. Conditions: oral, 14 consecutive days, ruxolitinib 60 mg/kg BID, Compound A 75 mg/kg QD.

With `N#CC[C@H](C1CCCC1)n1cc(-c2ncnc3[nH]ccc23)cn1` [ruxolitinib, (R)-3-(4-(7H-pyrrolo[2,3-d]pyrimidin-4-yl)-1H-pyrazol-1-yl)-3-cyclopentylpropanenitrile], the “normalizing red blood cell count” value in assay [1] (FIG. 7B) was “more effective”. Moreover, in assay [1] (versus single interventions, FIG. 7A), the “reducing the mutant clone” value is on record as “more effective”.
For `CNC[C@@H](NC(=O)c1ccc(-c2nc([C@H]3CC[C@H](O)[C@@H](F)C3)cnc2N)cc1F)c1cc(F)cc(Br)c1` [Compound A, 4-(3-amino-6-((1S,3S,4S)-3-fluoro-4-hydroxycyclohexyl)pyrazin-2-yl)-N—((S)-1-(3-bromo-5-fluorophenyl)-2-(methylamino)ethyl)-2-fluorobenzamide], the polycythemia entry in assay [2] is reported as “significantly normalizes”. The elevated hematocrit result in assay [2] (FIG. 3A) is “significantly normalizes”. Further, the splenomegaly result in assay [2] (FIG. 3B) was “significantly normalizes”.
